# Assay results published in patent US20230414607A1, “METHODS OF TREATMENT” (BOW RIVER LLC, priority 2017, published 2023).
# Read-outs that look alike come from different tables or passages of the source.
# Experiments:
# [1] = cited from earlier work; for normal baseline AUC: mean AUC0-24 (% CV) at steady state / normal baseline Cmax: mean Cmax (% CV), steady state: in vivo
# [2] = AUC and Cmax target safe levels of CYP3A4 substrate drugs (Table 1)
# Text: In various embodiments, the “Target safe levels” are non-limiting examples of the upper limit of fold change or percent of baseline where in some embodiments the benefits of treating the patient for the condition or disease for which the CYP3A4 substrate drug is indicated outweigh the risks associated with the effects of a drug-drug interaction. […] For purposes of the present methods, the blood plasma levels measured during co-administration of the CYP3A4 substrate drug with […] may be used to estimate the posaconazole DDI decay curve, e.g., using equation 1.
# [3] = target: CYP3A4 (Homo sapiens, UniProt P08684); conditions: cited from earlier work
# [4] = upper limit where benefits outweigh risks, approximation, can vary by about ±25%
# [5] = co-administered with a strong CYP3A4 inhibitor (posaconazole, itraconazole, ritonavir, or ketoconazole)
# CYP3A4, sequence (P08684 whole entry): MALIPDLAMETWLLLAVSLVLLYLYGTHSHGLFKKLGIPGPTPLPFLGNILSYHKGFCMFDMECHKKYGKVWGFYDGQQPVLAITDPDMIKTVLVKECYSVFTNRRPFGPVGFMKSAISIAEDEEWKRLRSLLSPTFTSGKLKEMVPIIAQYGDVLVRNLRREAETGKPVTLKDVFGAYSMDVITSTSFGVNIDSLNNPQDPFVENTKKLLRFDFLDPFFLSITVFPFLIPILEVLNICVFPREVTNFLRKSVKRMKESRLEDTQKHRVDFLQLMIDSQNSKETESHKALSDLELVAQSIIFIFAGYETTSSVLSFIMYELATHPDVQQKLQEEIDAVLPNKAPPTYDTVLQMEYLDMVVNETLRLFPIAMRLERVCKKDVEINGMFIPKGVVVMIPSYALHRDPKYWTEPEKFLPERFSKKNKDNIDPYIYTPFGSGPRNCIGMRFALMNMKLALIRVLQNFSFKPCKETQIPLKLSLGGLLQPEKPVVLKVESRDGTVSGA
"AUC target safe level, Fold change ([2]; human) [fold]","AUC target safe level, Percent of baseline ([2]; human) [%]","Cmax target safe level, Percent of baseline ([2]; human) [%]",Compound,"AUC co-administration levels, Fold change ([3]; in vivo) [fold]","AUC co-administration levels, Percent of baseline ([3]; in vivo) [%]","Cmax co-administration levels, Fold change ([3]; in vivo) [fold]","Cmax co-administration levels, Percent of baseline ([3]; in vivo) [%]",further results
–,–,–,O=C(O[C@H]1CN2CCC1CC2)N1CCc2ccccc2[C@@H]1c1ccccc1 [solifenacin succinate],–,–,–,–,"normal baseline AUC: mean AUC0-24 (% CV) at steady state ([1]; 5 mg): about 463 (37%) ng*h/mL; normal baseline Cmax: mean Cmax (% CV), steady state ([1]; 5 mg): 24.01 (30%) ng/mL; normal baseline AUC: mean AUC0-24 (% CV) at steady state ([1]; 10 mg): about 749 (22%) ng*h/mL; normal baseline Cmax: mean Cmax (% CV), steady state ([1]; 10 mg): 40.61 (21%) ng/mL"
2.1,210,160,COc1cc2c(cc1OC)CC(=O)N(CCCN(C)C[C@H]1Cc3cc(OC)c(OC)cc31)CC2 [ivabradine],7,700,3.25,325,"Cmax target safe level, Fold change ([2]; human): 1.6 fold"
–,–,–,CCOc1cc2ncc(C#N)c(Nc3ccc(OCc4ccccn4)c(Cl)c3)c2cc1NC(=O)/C=C/CN(C)C [neratinib],5.81,581,4.21,421,Baseline AUC (% CV) ([1]; AUC0-24 single dose 180 mg): 734 ± 291 ng·h/mL; Baseline AUC (% CV) ([1]; AUC0-24 single dose 240 mg): 823 ± 291 ng·h/mL; Baseline AUC (% CV) ([1]; AUC0-24 single dose 320 mg): 1582 ± 800 ng·h/mL; Baseline Cmax (% CV) ([1]; single dose 180 mg): 65.9 ± 34.7 ng/mL; Baseline Cmax (% CV) ([1]; single dose 240 mg): 75.9 ± 12.9 ng/mL; Baseline Cmax (% CV) ([1]; single dose 320 mg): 118 ± 47.6 ng/mL
–,–,–,C=CCN1CC[C@]23c4c5ccc(O)c4O[C@H]2[C@@H](OCCOCCOCCOCCOCCOCCOCCOC)CC[C@@]3(O)[C@H]1C5 [naloxegol],–,–,–,–,"AUC target safe level, Fold change [2, 4]: 3.41 fold; AUC target safe level, Percent of baseline [2, 4]: 341%; Cmax target safe level, Fold change [2, 4]: 2.86 fold; Cmax target safe level, Percent of baseline [2, 4]: 286%; AUC co-administration levels, Fold change [3, 5]: 12.85 fold; AUC co-administration levels, Percent of baseline [3, 5]: 1285%; Cmax co-administration levels, Fold change [3, 5]: 9.58 fold; Cmax co-administration levels, Percent of baseline [3, 5]: 958%"
–,–,–,CCc1c2c(nc3ccc(OC(=O)N4CCC(N5CCCCC5)CC4)cc13)-c1cc3c(c(=O)n1C2)COC(=O)[C@]3(O)CC [irinotecan],–,–,–,–,"Baseline AUC (% CV) ([1]; single 90 min infusion of irinotecan 125 mg/m^2, AUC0-24): 10,200 ng*h/mL; Baseline Cmax (% CV) ([1]; single 90 min infusion of irinotecan 125 mg/m^2): 1,660 ± 797 ng/ml; Baseline AUC (% CV) ([1]; single 90 min infusion of irinotecan 340 mg/m^2, AUC0-24): 20,604 ng*h/mL; Baseline Cmax (% CV) ([1]; single 90 min infusion of irinotecan 340 mg/m^2): 3,392 ± 874 ng/ml"
1.73,173,152,N#Cc1ccnc(N2C(=O)CC[C@H]2C(=O)N(c2cncc(F)c2)[C@H](C(=O)NC2CC(F)(F)C2)c2ccccc2Cl)c1 [ivosidenib],2.69,269,–,–,"Cmax target safe level, Fold change ([2]; human): 1.52 fold"
1.52,152,0,O=C(NC[C@H]1CN(c2ccc(N3CCOCC3=O)cc2)C(=O)O1)c1ccc(Cl)s1 [rivaroxaban],1.76,176,1.56,156,–
–,–,–,CC[C@@H]1CN(C(=O)NCC(F)(F)F)C[C@@H]1c1cnc2cnc3[nH]ccc3n12 [upadacitinib],–,–,–,–,Baseline AUC (% CV) ([1]; AUCinf single dose at 3 mg): 103 ± 27.6 ng·h/mL; Baseline AUC (% CV) ([1]; AUCinf single dose at 6 mg): 160 ± 37.6 ng·h/mL; Baseline AUC (% CV) ([1]; AUCinf single dose at 12 mg): 331 ± 49.8 ng·h/mL; Baseline AUC (% CV) ([1]; AUCinf single dose at 24 mg): 615 ± 78.1 ng·h/mL; Baseline Cmax (% CV) ([1]; single dose at 6 mg): 38.9 ± 9.96 ng/mL; Baseline Cmax (% CV) ([1]; single dose at 12 mg): 82.9 ± 12.1 ng/mL
–,–,0,Cc1c(C(=O)Nc2ccc(N3C[C@@H](C)O[C@@H](C)C3)nc2)cccc1-c1ccc(OC(F)(F)F)cc1 [sonidegib],2.2,220,1.5,150,–
10.4,1040,–,CCc1cc(/C(C)=N/OCc2ccc(C3CCCCC3)c(C(F)(F)F)c2)ccc1CN1CC(C(=O)O)C1 [siponimod],2,200,–,–,–
–,–,–,CC(C)(C)c1nc(-c2cccc(NS(=O)(=O)c3c(F)cccc3F)c2F)c(-c2ccnc(N)n2)s1 [dabrafenib],1.71,171,–,–,–
–,–,–,O=C(Nc1cnn2ccc(N3CCC[C@@H]3c3cc(F)ccc3F)nc12)N1CC[C@H](O)C1 [larotrectinib],4.3,430,2.8,280,–
